Here are results for one substance from patent US20100173025A1, “FAT ABSORPTION INHIBITORY COMPOSITION” (NISSHIN PHARMA INC., priority 2007, published 2010).

The assay deals with lipase (produced by Sigma). In words: Determination of lipase inhibitory activity (olive oil substrate emulsion, copper reagent, absorbance at 480 nm). Format: biochemical. The following applies: 37° C., 30 minutes. As to the method:
Ten micro litter of a solution containing the composition of the present invention obtained in Example 2 or 3 (diluted with a buffer to a final concentration of 0.01 or 0.1 mg/mL) or 10 μL of a solution containing the composition of the present invention obtained in Example 4 (at a final concentration of 1 mg/mL) was added to 80 μL, of a substrate emulsion (3.0 g of obtained by adding olive oil to 100 mL of a buffer described below, followed by sonication). The resultant was allowed to stand at 37° C. for 10 minutes. Ten micro litter of a lipase solution (diluted with a buffer to a concentration of lipase (produced by Sigma) of 1.0 mg/mL) was added thereto. The mixture was reacted with an enzyme reaction at 37° C. for 30 minutes. […] A coloring solution was added to the supernatant for determination of an absorbance at 480 nm. […] Results were calculated by Equation 1 described below with absorbance of the following: the composition of the present invention; a blank replaced the lipase solution with a buffer; and a control replaced a solution containing the composition of the present invention with a buffer. […]
Inhibition rate (%)=[1−[absorbance of the composition of the present invention−blank absorbance]/[control absorbance−blank absorbance]]

In the case of purothionin [Positive control], the Lipase inhibition rate is, setting by setting: (final concentration 0.1 mg/mL) 76%; (final concentration 1 mg/mL) 96%.
